{"source": "patent US20080070971A1", "about": "“Medical Use of Bilirubin and its Structural Analogues” (priority 2006, published 2008)", "key": {"cyclooxygenase (COX)": {"system": "cyclooxygenase (COX)", "assay": "Cyclooxygenase (COX) inhibition", "format": "biochemical, human", "description": "The activity of COX was determined by the procedure described in Assay Design's Enzyme Immunometric Assay (EIA) kit (Assay Design Inc., TiterZyme EIA cat.#900-094). Briefly, the kit uses a monoclonal antibody to human COX-II immobilized on a microtiter plate to bind the human COX in the standard or sample. After a short incubation the excess standard or sample is washed out and a rabbit polyclonal antibody to human COX labeled with the enzyme. Horseradish peroxidase is added. This labeled antibody binds to the human COX captured on the plate. After a short incubation the excess labeled antibody is washed out and substrate is added. The substrate reacts with the labeled antibody bound to the human COX captured on the plate. After a short incubation, the enzyme reaction is stopped and the color generated is read at 450 nm. The measured optical density is directly proportional to the concentration of human COX.\nPurified cyclooxygenases (COX) were obtained from Kayman Chemical Company and used to examine the inhibitory effect of bilirubin with arachidonic acid as the substrate. High purity of bilirubin (SigmaAldrich #B4126), biliverdin (Frontier Scientific Inc., Cat. B655-9) and hemin (SigmaAldrich, #51280) were used as received."}, "HMG-CoA reductase": {"target": "T1, HMG-CoA reductase (Homo sapiens, UniProt P04035)", "T1 construct": "from tissue; host or cells: liver microsomes", "T1 sequence (P04035 1-888)": "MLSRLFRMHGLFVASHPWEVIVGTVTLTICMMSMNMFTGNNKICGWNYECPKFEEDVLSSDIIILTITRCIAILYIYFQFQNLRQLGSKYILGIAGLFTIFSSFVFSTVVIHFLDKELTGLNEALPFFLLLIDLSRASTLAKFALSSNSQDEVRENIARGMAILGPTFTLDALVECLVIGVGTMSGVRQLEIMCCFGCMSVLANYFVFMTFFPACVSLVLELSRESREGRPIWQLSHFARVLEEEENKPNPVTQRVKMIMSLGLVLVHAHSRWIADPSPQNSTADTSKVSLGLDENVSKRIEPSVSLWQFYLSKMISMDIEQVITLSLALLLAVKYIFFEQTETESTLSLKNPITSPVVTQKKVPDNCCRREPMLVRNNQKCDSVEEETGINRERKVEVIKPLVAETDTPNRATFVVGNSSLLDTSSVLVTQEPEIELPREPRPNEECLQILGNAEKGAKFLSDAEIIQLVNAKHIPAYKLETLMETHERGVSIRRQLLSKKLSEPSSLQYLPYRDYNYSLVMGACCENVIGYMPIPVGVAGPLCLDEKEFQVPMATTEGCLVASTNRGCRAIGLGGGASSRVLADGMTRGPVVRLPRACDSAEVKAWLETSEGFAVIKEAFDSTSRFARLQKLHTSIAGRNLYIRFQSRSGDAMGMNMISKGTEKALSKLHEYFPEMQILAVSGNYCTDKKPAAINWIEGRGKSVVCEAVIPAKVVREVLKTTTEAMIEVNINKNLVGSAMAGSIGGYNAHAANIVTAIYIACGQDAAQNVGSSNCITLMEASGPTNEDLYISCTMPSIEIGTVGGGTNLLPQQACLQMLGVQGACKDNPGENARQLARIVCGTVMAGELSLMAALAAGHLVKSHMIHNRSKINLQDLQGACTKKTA", "assay": "HMG-CoA reductase assay in liver microsomes", "format": "biochemical", "settings": "10 mg/L (FIG. 5)", "description": "Liver microsomes, which are used to investigate cholesterol metabolism, were prepared as follows. Liver was homogenized in 50 mM Tris HCl buffer (pH 7.4), containing 0.3 M sucrose, 10 mM DTT, and 10 mM EDTA. The homogenate was centrifuged at 20,000×g for 15 min, and the supernatant was centrifuged at 100,000×g for 60 min. The resulting microsomal fraction was suspended in 3 ml of 0.1 M potassium phosphate buffer (pH 7.4), containing 1 mM EDTA and 5 mM DTT. Aliquots were immediately frozen in liquid nitrogen and stored at −20° C. until analysis.\nAssay of HMG-CoA reductase. Microsomal suspensions of […], containing 5 mg protein, were preincubated for 5 min at 37° C. with […] of 0.1 M potassium phosphate buffer (pH 7.4), containing 1 mM EDTA and 12 mM glucose-6-phosphate. The assay was initiated by adding […] of cofactor-substrate solution (0.1 mM HMG-CoA, 3 mM MADPH, and 2 U/ml glucose-6-phosphate dehydrogenase). The incubation was performed at 37+ C. for 30 min and was terminated by the addition of […] of 1 M MaOH. After lactonization, the mevalonolactone was separated by thin layer chromatography. The eluate, which contained mevalonolactone, was collected in a scintillation vial. The radioactivity was then counted in a Packard 3320 scintillation spectrometer."}, "[1]": {"target": "T2, isocitrate dehydrogenase (ICDH) (Sus scrofa, UniProt P33198)", "T2 construct": "purchased SigmaAldrich I2516", "T2 sequence (P33198 9-421)": "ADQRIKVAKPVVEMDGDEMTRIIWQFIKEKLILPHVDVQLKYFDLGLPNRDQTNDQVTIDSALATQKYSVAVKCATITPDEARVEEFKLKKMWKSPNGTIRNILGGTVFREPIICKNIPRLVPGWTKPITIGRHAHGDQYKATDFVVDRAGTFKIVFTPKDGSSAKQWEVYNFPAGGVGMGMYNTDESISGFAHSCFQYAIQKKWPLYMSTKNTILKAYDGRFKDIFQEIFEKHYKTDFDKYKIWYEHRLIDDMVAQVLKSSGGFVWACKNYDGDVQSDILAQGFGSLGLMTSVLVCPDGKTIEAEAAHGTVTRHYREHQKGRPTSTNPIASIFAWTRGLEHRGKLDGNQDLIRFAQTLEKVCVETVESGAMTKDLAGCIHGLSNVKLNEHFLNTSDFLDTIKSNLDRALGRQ", "assay": "Isocitrate dehydrogenase inhibition", "format": "biochemical", "settings": "concentration equivalent to the moderate level of serum bilirubin (FIG. 7)", "description": "NAD (Cat.#N1511), NADH (Cat. N9410), NADP (Cat.#N8610) and NADPG (Cat. #N7505), HMG-CoA (Cat.#H6132) were purchased from Sigma Aldrich (St. Louis, Mo.). NADP-linked isocitrate dehydrogenase was also obtained from SigmaAldrich (Cat.#I2516). Other liver enzymes were prepared as follows."}, "[2]": {"assay": "Minimal erythema dose (MED) on skin exposed to solar radiation", "format": "in vivo, human", "from_the_text": "Healthy volunteers were exposed to solar radiation for evaluation of minimal erythema dose (MED)—a direct sign of acute inflammation, without and with pretreatment of bilirubin (dissolved in dimethyl sulfoxide)."}}, "data": [{"smiles": "C=CC1=C(C)C(=Cc2[nH]c(Cc3[nH]c(C=C4NC(=O)C(C)=C4C=C)c(C)c3CCC(=O)O)c(CCC(=O)O)c2C)NC1=O", "note": "[bilirubin, 2,7,13,17-tetramethyl-1,19-dioxo-3,18-divinyl-1,10,19,22,23,24-hexahydro-21H-biline-8,12-dipropanoic acid]", "values": [{"measurement": "inhibition of the COX activity", "setting": "cyclooxygenase (COX); 10 mg/L bilirubin (FIG. 3)", "result": "Up to 70%"}, {"measurement": "reducing COX activity (comparison)", "setting": "cyclooxygenase (COX); concentration of 10 mg/L (FIG. 4)", "result": "effective in reducing COX activity"}, {"measurement": "reduction of HMG-CoA reductase activity", "setting": "HMG-CoA reductase", "result": "≤ 60", "unit": "%"}, {"measurement": "inhibition of isocitrate dehydrogenase", "setting": "[1]", "result": "strongly suppressed"}, {"measurement": "skin inflammation after UV exposure", "setting": "[2]; bilirubin treated skin areas", "result": "no sign of inflammation"}, {"measurement": "minimal erythema dose (MED)", "setting": "[2]; topical pretreatment with bilirubin in DMSO (FIG. 8)", "result": "increased"}]}]}
